Experimental data reported in patent US8227240B2, “Systems for screening pharmaceutical chemicals” (The Washington University, priority 2001, dated 2012).
pIC50: −log10 of the molar value. Like-named read-outs stand apart in the source and are kept apart here. One block for each compound: values may come before it.

Tests used:
[1] = test system: chicken embryo fibroblasts (CEF's) tissue model; assay: Ring system: isometric force and dynamic stiffness of fibroblast populated matrices (FPM); assay type: cell-based; settings: for pIC50: serial additions, sigmoidal dependence
Protocol: Chicken embryo fibroblasts (CEF's) isolated from 11-day chicken embryos (Spafas Inc., Preston, Conn.) were maintained in Dulbecco's modified Eagle's medium (DMEM) supplemented with 10% fetal calf serum (FCS), penicillin at 50 units/ml, and streptomycin at 50 microgram/milliliter. The CEF's used to make tissue models were passaged once or twice from primary cultures. Monomeric collagen solubilized in 0.02 M acetic acid (Upstate Biotechnology Inc., Lake Placid, N.Y.) was neutralized at 4° C. with 0.1 N NaOH and mixed with concentrated DMEM stock to yield a final normal DMEM concentration. The fibroblasts suspended by trypsin (FIG. 1a) were mixed with the collagen solution (FIG. 1b), the cell suspension was poured into Teflon casting wells (FIG. 1c), and the wells were incubated at 37° C. with 5% CO2 (FIG. 1d). The collagen polymerized within 15-30 min and fibroblasts were captured within the hydrated collagen gel. The collagen gel formed a ring (3 mm thick, 3 cm diameter) between the inner wall of the cylindrical well and the central mandrel. While in culture the cells compressed this ring, reducing its volume about 10-fold (thickness 200-300 μm). The ring could then be removed from the mandrel (FIG. 1e and FIG. 1f) and mounted on the measuring instrument (FIG. 1g) as described below.
Mechanical measurements were carried out using a ring system. After two days of incubation (serum starvation for the final 12-16 hours), the mandrel was removed from the casting well and the tissue model-ring was removed gently from the mandrel. As shown in FIG. 1 the tissue model-ring was looped over the triangular hook connected to an isometric force transducer (Model 52-9545, Harvard Apparatus, South Natick, Mass.) by a fine, flexible gold chain. The ring was also looped over a horizontal bar connected to a sliding element moveable vertically and linearly by a stepper motor (P/N 1-19-3400 24V DC 1.8° step size, Haward Industry, St. Louis, Mo.) controlled by a micro-stepping driver (IM483 Intelligent Motion Systems) to measure stress and dynamic modulus of the sample. The micro-stepping driver was controlled by a personal computer with software which enabled the stepper motor to achieve smooth motion. An analog-to-digital signal converter (CIO-DAS1602/16, Computer Boards, Inc., Mansfield, Mass.) attached to the computer translated the voltage signal from the isometric force transducer to a digital signal for recording on a data recorder. The stepper motor controlled the stretching of the tissue. Force exerted by or on the tissue was transmitted to the force transducer by the gold chain.
The tissue sample was submerged in 50 ml Hepes-buffered DMEM (pH 7.4) in a thermo-regulated organ bath (Harvard Apparatus, South Natick, Mass.) maintained at 37° C. The two horizontal bars over which the ring was looped were initially set to hold the ring at its original contour length (corresponding to the circumference of the mandrel).
Typically, for stiffness measurements, the tissue model is subjected to a sequence of stretch cycles. In each cycle the tissue model is slowly stretched from 0 to 20% over 30 minutes and the tissue model is then returned at the same rate to its original length by actuation of the stepper motor. The resulting increase in contractile force during the first stretch is substantially larger than the contractile force in subsequent stretches (FIG. 2a). For each stretch after the first stretch there is a further small decrease in maximum contractile force, but the decrease becomes negligible after sufficient pre-stretching. The tissue models produced contractile force in response to the activation of fibroblasts by serum. This contractile force was abolished by disrupting the actin cytoskeleton with cytochalasin D (2 μM) (FIG. 2b).
The amplitude of the force response divided by the stretching amplitude corresponded to the dynamic stiffness of the sample subjected to a preselected sinusoidal length change. […]

[2] = test system: bio-artificial tissues (extracellular matrix, cellular contractility); assay: Tissue indentation device: mechanical changes in ECM, EA and pre-tension (Example 17); assay type: cell-based
Protocol: To verify the sensitivity for detecting changes in the mechanical properties of extracellular matrix (ECM) by the device, different concentrations of collagenase (1, 10, 100 U/ml) were administered to the different sets of bio-artificial tissues at time indicated by the arrow (b) in FIG. 33. All the bio-artificial tissues were treated with Endothelin-1 (50 nM, arrow a) to make sure the cells were responding to a contractile stimuli.
Experimental groups are separated into control (no treatment, filled circle), and treatments with 1, 10, 100 U/ml collagenase indicated by open circle, open triangle, and open square, respectively. After addition of 1 U/ml collagenase, the pre-tension, i.e. cellular contractility, was maintained compared to that of untreated control. […] While the collagenase digested the collagen matrix and affected ECM stiffness, the cell-ECM connection was slowly disrupted. Therefore, the cellular contractility was decreased especially with higher concentrations of collagenase. Nevertheless, the dataset indicated the measurement system sensitively detected incremental changes in ECM mechanics depending on the level of collagen degradation by the increasing concentrations of collagenase. At the 20 min time point (10 min after collagenase treatment), the apparent reduction of EA, but not pre-tension, indicates the EA was more sensitive to treatments affecting the extracellular matrix.

[3] = test system: rat adult cardiac fibroblasts (RACFs); assay: Contractile response of ring samples to agonists, RACFs; assay type: cell-based
From the text: (§1) Profiles of contractile response to different agonists applied to ring samples were made using chicken embryo cardiac fibroblasts (CECFs) and rat adult cardiac fibroblasts (RACFs) and are shown in FIGS. 16(a)-(d) and FIGS. 16(e)-(h), respectively.
(§2) Time dependent force profiles after addition of FBS (20% v/v) were different depending on the pretreatment by different agonists.

[4] = test system: smooth muscle cells (SMCs) isolated from rat aorta; assay: Tissue indentation device: acute time-dependent cell force (Example 18); assay type: cell-based; settings: measured at 0, 1, 4 and 7 min; 50 nM Norepinephrine, 100 nM Endothelin, 10% FBS (FIG. 34)
Protocol: To test the system's ability to measure acute time-dependent response after treating the ETs, vasoconstrictors, norepinephrine and endothelin-1 and general constricting agent, fetal bovine serum (FBS) were added to bio-artificial tissues with smooth muscle cells (SMCs) isolated from rat aorta (10^6 SMCs per ml of bio-artificial tissue solution at bio-artificial tissue formation). The force generated by these bio-artificial tissues was measured at 0, 1, 4 and 7 min after adding the agents. […] The total acquisition time for 64 data points was 40 minutes.

[5] = test system: rat embryo fibroblast derived cell line (REF52); assay: Force response of ring samples to physiological activators without stretching; assay type: cell-based; settings: each drug added to a single tissue ring
Protocol: Ring samples made using a rat embryo fibroblast derived cell line (REF52) were prepared as described previously herein. The length of the tissue was maintained at a constant level during the test. Each of the drugs indicated in FIG. 15 was added to a single tissue ring.

[6] = test system: chicken embryo cardiac fibroblasts (CECFs); assay: Contractile response of ring samples to agonists, CECFs; assay type: cell-based
From the text: as §1, §2

[7] = test system: ring tissue model; assay: Contractile force developed by ring sample during tissue development (matrix remodeling and compression); assay type: cell-based
Protocol: The contractile force developed by the ring sample during matrix remodeling and compression can be measured by connecting the ring to the force measuring apparatus as described above within about 1-2 hours after collagen gelation. The cells begin to exert a force on the matrix after this time. Then the increase of force during tissue development (remodeling and compression) is observed over time.
Maximum force is typically reached within 15 to 20 hours. This process was also disrupted by several inhibitors as illustrated in FIGS. 18(b)-(d).

[8] = test system: chicken cardiac cells; assay: Force response of regular and miniaturized cardiac tissue models; assay type: cell-based; settings: regular and miniaturized tissues, after calf serum
Protocol: The sample sizes are determined by the diameters of the mandrels and inner diameters of the wells. […] Miniaturized samples made using chick cardiac cells show twitch responses. Therefore this system can be used to test the effects of pharmaceutical candidates treating cardiac dysfunctions (Insert in FIG. 9b)

[9] = test system: NIH 3T3 cells; assay: Stress relaxation of tension in connective tissue models; assay type: cell-based; settings: different amounts
Protocol: The connective tissue models made using NIH 3T3 cells were treated with different amounts of the candidate pharmaceutical, Y27632, a Rho kinase specific inhibitor, which has been tested for reducing tension of smooth muscle strips such as rabbit aortic rings (Nature 239 (1997) 990-993). It is one of the promising drug candidates for treating hypertension in the future. Depending on the agonists used to stimulate the tissue contraction, the degree of reduction in tension is different (FIG. 21). […] Thus, the methods are useful for screening pharmaceutical candidates.

[10] = test system: tissue models
[11] = test system: myosin ATPase; assay: Inhibition of contractile force activated by 20% FBS in ring sample; assay type: cell-based; settings: after prior addition of 20% FBS; 2, 4, 20, and 40 μM BDM
Protocol: In a related experiment, FBS was added to activate the contractile force and then a myosin ATPase inhibitor was added.

Compound: C/C1=C/C(=O)O[C@@H]2C[C@@H](CC[C@H](C)/C=C\CC1)O[C@@](O)([C@@H]1CSC(=O)N1)C2 [LA-B, Latrunculin B]
- concentration at which force and dynamic stiffness reached their minimum values [1]: ~600 nM
- concentration range over which tension and stiffness decrease [1]: single decade
- lowest concentration at which force and dynamic stiffness were significantly diminished [1]: 40 nM
- effect on viscosity of the tissues (phase angle δ) ([1]; data not shown): relatively minor effect
- pIC50 ([1]; read-out: estimated half maximum concentration for reducing the force): 7.28
- pIC50 ([1]; read-out: estimated half maximum concentration for reducing the stiffness): 7.17

Compound: collagenase
- pre-tension (cellular contractility) compared to untreated control ([2]; 1 U/ml collagenase, after Endothelin-1 50 nM): maintained
- EA (tissue stiffness) ([2]; 1 U/ml collagenase, about 10 min after treatment): began to be reduced
- pre-tension (cellular contractility) ([2]; 10 U/ml collagenase, for ~10 min): didn't reduce the pre-tension significantly
- drop of EA (tissue stiffness) ([2]; 100 U/ml collagenase, ~10 min after treatment): already significant

Compound: CC[C@H](C)[C@H](NC(=O)[C@H](CC(=O)O)NC(=O)[C@H](CC(C)C)NC(=O)[C@H](Cc1c[nH]cn1)NC(=O)[C@@H]1CSSC[C@H](N)C(=O)N[C@@H](CO)C(=O)N[C@H]2CSSC[C@H](NC(=O)[C@H](CCC(=O)O)NC(=O)[C@H](CCCCN)NC(=O)[C@H](CC(=O)O)NC(=O)[C@H](CCSC)NC(=O)[C@H](CC(C)C)NC(=O)[C@H](CO)NC(=O)[C@H](CO)NC2=O)C(=O)N[C@@H](C(C)C)C(=O)N[C@@H](Cc2ccc(O)cc2)C(=O)N[C@@H](Cc2ccccc2)C(=O)N1)C(=O)N[C@H](C(=O)N[C@@H](Cc1c[nH]c2ccccc12)C(=O)O)[C@@H](C)CC [endothelin, endothelin-1]
- contractile response of ring [3]: contracted rings
- pre-tension (cellular contractility) ([2]; Endothelin-1 50 nM): increased immediately
- cell force (active force) after adding the agent [4]: increased over time
- time at which cell force reached its maximum value [4]: 7 min
- force response of tissue ring at constant length [5]: produce different forces
- contractile response of ring [6]: contracted rings

Compound: Thrombin
- force response of tissue ring at constant length [5]: produce different forces

Compound: EGF: epidermal growth factor (NSDSECPLSHDGYCLHDGVCMYIEALDKYACNCVVGYIGERCQYRDLKWWELR; Epidermal growth factor; UniProt P01133 971-1023, looked up)
- contractile response of ring [6]: did not respond to any dose

Compound: angiotensin II (DRVYIHPF; Angiotensin-2; UniProt P01019 25-32, looked up) [agonist]
- contractile response of ring [3]: responded
- contractile response of ring [6]: did not response

Compound: NC(=O)CC[C@@H]1NC(=O)[C@H](Cc2ccccc2)NC(=O)[C@H](Cc2ccc(O)cc2)NC(=O)[C@@H](N)CSSC[C@@H](C(=O)N2CCC[C@H]2C(=O)N[C@@H](CCCN=C(N)N)C(=O)NCC(N)=O)NC(=O)[C@H](CC(N)=O)NC1=O [vasopressin]
- contractile response of ring [3]: responded
- force response of tissue ring at constant length [5]: produce different forces
- contractile response of ring [6]: did not response

Compound: CO[C@H]1[C@@H](OC)C[C@H](C)[C@@H](OC)C2=CC(=O)C=C(NC(=O)/C(C)=C/C=C\[C@H](OC)[C@@H](OC(N)=O)/C(C)=C/[C@@H]1C)C2=O [herbimycin A]
- maximum force during ring tissue development [7]: reduces the maximum force

Compound: C[C@@H](N)[C@H]1CC[C@H](C(=O)Nc2ccncc2)CC1 [Y27632]
- force of cardiac tissue models [8]: decreased
- tension of connective tissue models [9]: reduces the tension

Compound: CNC[C@H](O)c1cccc(O)c1 [phenylephrine]
- force response of tissue ring at constant length [5]: reduced the initial base line force

Compound: COC(=O)Nc1nc2ccc(C(=O)c3cccs3)cc2[nH]1 [nocodazole]
- maximum force during ring tissue development [7]: reduces the maximum force

Compound: lysophosphatidic acid [LPA]
- force response of tissue ring at constant length [5]: produce different forces

Compound: CCO [ethanol]
- force and stiffness of tissue models ([10]; 10% solution of ethanol): reduces force and stiffness of tissue models significantly
- level of baseline force maintained by the viable cells ([10]; different dose of ethanol): decrease

Compound: NC[C@H](O)c1ccc(O)c(O)c1 [Norepinephrine, norepinephrine]
- cell force (active force) after adding the agent [4]: increased over time
- time at which cell force reached its maximum value [4]: 7 min
- force response of tissue ring at constant length [5]: reduced the initial base line force

- fully activated contractile force [11]: reduced, in a dose dependent manner
Compound: CC(=O)C(C)=NO [BDM, butane dione monoxime]
